Tested on: corneal neovascularization induced by bFGF
Test: Rat corneal neovascularization assay
Format: in vivo, Fischer 344 rats
Parameters: total vascular area: unit not given here
Settings: oral gavage 500 mg/kg twice a day for 6 days
Method: Hydron polymer (Interferon Sciences, New Brunswick, N.J.) was dissolved in ethanol to a concentration of 12% (W/V). A 1:1 mixture of 12% Hydron and bFGF/Sucralfate/PBS suspension was made as a casting solution and 3 μl of this solution was pipetted onto a sterile Teflon sheet and allowed to dry overnight at 4° C. Each dried pellet contained 50 ng of bFGF and 20 μg of Sucralfate. Female Fischer 344 rats (16 animals, 8-10 weeks old at an approximate weight of 150 g; Charles River, Raleigh, N.C.) were used for this study. Animals were kept in temperature-controlled rooms (24° C.) on a 12-h light-dark cycle with access to rat chow and tap water ad libitum. Following anesthesia with sodium pentobarbital given i.p. at 50 mg/kg body weight, a rat was placed under a dissecting microscope and a drop of Ophthaine was applied on the cornea of one eye. The eye was proptosed by stretching sutures on the upper and lower eyelids. A small superficial incision was made through the cornea center and a micropocket was created by separating the lamella of the stroma toward the limbus with a modified iris spatula. The distance between the bottom of the micropocket and the limbus was about 1 mm. A prepared sterile Hydron pellet was rehydrated with a drop of sterile saline and placed into the corneal micropocket. The cornea was covered with gentamycin ophthalmic ointment (Alleran, Inc., Irvine, Calif.) after surgery. Rats were randomly divided into treated and control groups. […] The drug was administrated by oral gavage at a dose of 500 mg/kg body weight, twice a day for 6 days beginning from the first postoperative day. The controls received vehicle only, and body weights of all animals were monitored and recorded daily. On the seventh postoperative day, animals were anesthetized with nembutal (50 mg/kg) and the thoracic aorta was rapidly cannulated in a retrograde fashion with PE 100 tubing. An incision was made in the right auricle for drainage of blood and saline during flushing and 40-60 mL of saline was injected via the tubing to wash out the blood from the vessels in the upper part of the body until the eyes, ears and nose became pale. Then 10 mL of Higgins waterproof Indian ink (Sanford, Bellwood, Ill.) was injected via the tubing to visualize corneal vessels. The eyes were enucleated, fixed in 10% neutralized formaldehyde buffer, and the corneas were dissected and mounted on slides. Slide-mounted corneal images were taken by using a Carl Zeiss MPS intravital microscope (Carl Zeiss, Hanover, Md.) with a camera connected to a PC equipped with Scion Image software and a frame grabber (Scion Corporation, Frederick, Md.).
For the quantitative analysis of corneal neovascularization, various parameters of the corneal images were measured by an investigator who was unaware of the treatment protocol. The shortest distance between the implanted pellet and the limbus was marked as the midline and was measured. The arc along the limbus for the entire vascularized area was drawn and the length of the arc was measured. The circumference of this area was calculated by using the following equation: Circumference (in clock hours)=Arc length×360/πD/30, where D is the corneal diameter. The marked arc was evenly divided into six sections, distances between vessel tips and the limbus at the five intersection points of the arc were measured, and the average vessel length was calculated. The perpendicular distance between the tip of the longest vessel and the limbus (longest vessel length) was also measured. To measure the percent vascular volume (i.e., the vascular volume density), three circles with a diameter of 100 pixels were located between the pellet and the limbus on the midline in the second and the fifth sections, respectively. The total area of each circle (Area-T) and the area for vessels in each circle (total black pixels) were measured (Area-V). […]

COC(=O)c1cc(I)c(Oc2ccc(OC)cc2)c(I)c1 [BTO-956, methyl-3,5-diiodo-4-(4′-methoxyphenoxy)benzoate]
body weight loss or behavioral changes: No significant body weight loss or behavioral changes | average vessel length (mean ± SEM): 0.42±0.07 mm | circumference of corneal neovascularization (mean ± SEM): 1.74±0.11 clock hours | maximum vessel length (mean ± SEM): 0.76±0.09 mm | total vascular area (mean ± SEM): 1.52±0.27 | vascular volume density (mean ± SEM): 0.037±0.01 | reduction of average vessel length relative to controls (p<0.001): 50% | decrease of total vascular area compared with controls (p<0.01): 65% | decrease of vascular volume density compared with controls (p<0.01): 84.5% | reduction of circumference of neovascularization compared with controls (p<0.01): 45% | reduction of maximum vessel length relative to controls (p<0.01): 38%
